Data reported in patent US12139520B2 (priority 2020, dated 2024).
pEC50: −log10 of the molar value. Read-outs that look alike come from different tables or passages of the source. Bridge positions count the residues as written; N and C are the ends. Square brackets hold non-standard residues; d marks the D form. Peptide text beside a SMILES is read from it. Hyp = O=C(O)[C@@H]1C[C@@H](O)CN1

Tests used:
[1] = Physical stability of peptide analogues (Thioflavin T fibrillation); type: physicochemical; details: maximum ThT signal normalized between hAMY maximum and buffer background; 40° C., shaking, four days; pH 7 per table title
How it was run: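 Peptides in 50 mM sodium acetate pH 4 or 50 mM sodium phosphate pH 7 were preincubated 1 h, mixed with 4 μM ThT, held at 40° C with 700 rpm shaking before each read. Fluorescence (ex 450/em 480 nm) every 10 min for four days; LOESS-smoothed maximum signal normalized in percent between hAMY and buffer.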

hAM1 receptor = hAM1 receptor (Homo sapiens, UniProt O60895+Q16602); experiment: cAMP assay for in vitro receptor activation, hAM1-R; type: cell-based
How it was run: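 Receptor activation, read as cAMP, was assessed in thawed cells of a monoclonal hAM1-overexpressing stable line, plated at 8000 cells/well in DPBS supplemented with 0.05% casein and 0.5 mM IBMX.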

[2] = cAMP assay, hAM1 receptor, read-out: hAM1R EC50

Sequence of hAM1 receptor (Q16602 23-461): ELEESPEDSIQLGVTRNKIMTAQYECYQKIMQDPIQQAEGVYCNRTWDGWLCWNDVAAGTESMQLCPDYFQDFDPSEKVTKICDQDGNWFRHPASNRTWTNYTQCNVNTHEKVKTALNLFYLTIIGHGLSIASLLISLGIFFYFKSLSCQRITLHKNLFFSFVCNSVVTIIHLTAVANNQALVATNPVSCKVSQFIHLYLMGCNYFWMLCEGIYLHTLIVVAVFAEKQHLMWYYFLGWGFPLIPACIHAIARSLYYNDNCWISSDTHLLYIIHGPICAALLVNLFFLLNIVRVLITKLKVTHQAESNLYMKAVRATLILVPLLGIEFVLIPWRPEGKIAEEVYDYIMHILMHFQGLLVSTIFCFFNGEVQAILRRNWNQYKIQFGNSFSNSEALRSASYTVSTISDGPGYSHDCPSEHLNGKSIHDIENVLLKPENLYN
Sequence of hAM1 receptor (O60895 43-175 partner): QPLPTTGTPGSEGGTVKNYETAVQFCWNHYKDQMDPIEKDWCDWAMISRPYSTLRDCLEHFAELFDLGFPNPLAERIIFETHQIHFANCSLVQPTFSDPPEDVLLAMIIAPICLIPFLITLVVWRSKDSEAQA

SMILES	Max ThT signal (%) [1]	pEC50 (hAM1 receptor)	pEC50 (hAM1 receptor; [2])
CC[C@H](C)[C@H](NC(=O)[C@H](CCC(N)=O)NC(=O)[C@H](Cc1c[nH]cn1)NC(=O)[C@H](C)NC(=O)[C@H](CC(C)C)NC(=O)[C@H](CCCNC(=N)N)NC(=O)[C@H](CCC(N)=O)NC(=O)[C@@H](NC(=O)[C@@H](NC(=O)[C@@H]1CSSC[C@H](NC(=O)CN)C(=O)N[C@@H](CCCNC(=N)N)C(=O)N[C@@H]([C@@H](C)O)C(=O)NCC(=O)N[C@@H]([C@@H](C)O)C(=O)N1)[C@@H](C)O)C(C)C)C(=O)N[C@@H](Cc1ccc(O)cc1)C(=O)N[C@@H](CCC(N)=O)C(=O)N[C@@H](Cc1ccccc1)C(=O)N[C@H](C(=O)N[C@@H](CC(=O)O)C(=O)N[C@@H](CCCCN)C(=O)N[C@@H](Cc1ccccc1)C(=O)N[C@@H](CCCCN)C(=O)N[C@@H](CC(=O)O)C(=O)N[C@@H](CC(N)=O)C(=O)N[C@H](C(=O)N[C@@H](C)C(=O)N1CCC[C@H]1C(=O)N[C@@H](CCCNC(=N)N)C(=O)N[C@@H](CO)C(=O)N[C@@H](CCCCN)C(=O)N[C@H](C(=O)N[C@@H](CO)C(=O)N1CCC[C@H]1C(=O)N[C@@H](CCC(N)=O)C(=O)N1CCC[C@H]1C(=O)N1C[C@H](O)C[C@H]1C(N)=O)[C@@H](C)CC)C(C)C)[C@@H](C)O [compound 203] (H-GCRTGTCTVQRLAHQIYQFTDKFKDNVAPRSKISPQP[Hyp]-NH2; disulfide 2-7; N-terminus assumed)	1.200%	< 5.30	
CC(C)C[C@H](NC(=O)[C@H](CCCNC(=N)N)NC(=O)[C@H](CCC(N)=O)NC(=O)[C@@H](NC(=O)[C@@H](NC(=O)[C@@H]1CSSC[C@H](NC(=O)[C@@H](N)CCCCN)C(=O)N[C@@H](CC(N)=O)C(=O)N[C@@H]([C@@H](C)O)C(=O)N[C@@H](C)C(=O)N[C@@H]([C@@H](C)O)C(=O)N1)[C@@H](C)O)C(C)C)C(=O)N[C@@H](C)C(=O)N[C@@H](Cc1c[nH]cn1)C(=O)N[C@@H](CCC(N)=O)C(=O)N[C@@H](C)C(=O)N[C@@H](Cc1ccc(O)cc1)C(=O)N[C@@H](CCC(N)=O)C(=O)N[C@@H](Cc1ccccc1)C(=O)N[C@H](C(=O)N[C@@H](CC(=O)O)C(=O)N[C@@H](CCCCN)C(=O)N[C@@H](CC(=O)O)C(=O)N[C@@H](CCCCN)C(=O)N[C@@H](CC(=O)O)C(=O)N[C@@H](CC(N)=O)C(=O)N[C@H](C(=O)N[C@@H](C)C(=O)N1CCC[C@H]1C(=O)N1CCC[C@H]1C(=O)N[C@H](C(=O)N[C@@H](CC(N)=O)C(=O)N[C@H](C(=O)NCC(=O)N[C@@H](CO)C(=O)N[C@@H](CC(N)=O)C(=O)NCC(=O)N1C[C@H](O)C[C@H]1C(N)=O)C(C)C)[C@@H](C)O)C(C)C)[C@@H](C)O [compound 210] (H-KCNTATCTVQRLAHQAYQFTDKDKDNVAPPTNVGSNG[Hyp]-NH2; disulfide 2-7)	1.400%		< 5.30
CC[C@H](C)[C@H](NC(=O)[C@H](CCC(N)=O)NC(=O)[C@H](Cc1c[nH]cn1)NC(=O)[C@H](C)NC(=O)[C@H](CC(C)C)NC(=O)[C@H](CCCNC(=N)N)NC(=O)[C@H](CCC(N)=O)NC(=O)[C@@H](NC(=O)[C@@H](NC(=O)[C@@H]1CSSC[C@H](NC(=O)CN)C(=O)N[C@@H](CCCNC(=N)N)C(=O)N[C@@H]([C@@H](C)O)C(=O)NCC(=O)N[C@@H]([C@@H](C)O)C(=O)N1)[C@@H](C)O)C(C)C)C(=O)N[C@@H](Cc1ccc(O)cc1)C(=O)N[C@@H](CCC(N)=O)C(=O)N[C@@H](Cc1ccccc1)C(=O)N[C@H](C(=O)N[C@@H](CC(=O)O)C(=O)N[C@@H](CCCCN)C(=O)N[C@@H](Cc1ccccc1)C(=O)N[C@@H](CCCCN)C(=O)N[C@@H](CC(=O)O)C(=O)N[C@@H](CC(N)=O)C(=O)N[C@H](C(=O)N[C@@H](C)C(=O)N1CCC[C@H]1C(=O)N[C@@H](CCCNC(=N)N)C(=O)N[C@@H](CO)C(=O)N[C@@H](CCCCN)C(=O)N[C@H](C(=O)N[C@@H](CO)C(=O)N1CCC[C@H]1C(=O)N[C@@H](CCC(N)=O)C(=O)N[C@H](C(=O)N[C@@H](CCSC)C(N)=O)[C@@H](C)O)[C@@H](C)CC)C(C)C)[C@@H](C)O [compound 215] (H-GCRTGTCTVQRLAHQIYQFTDKFKDNVAPRSKISPQTM-NH2; disulfide 2-7)	0.600%		< 5.30
CC[C@H](C)[C@H](NC(=O)[C@H](CCCCN)NC(=O)[C@H](CO)NC(=O)[C@H](CCCNC(=N)N)NC(=O)[C@@H]1CCCN1C(=O)[C@H](C)NC(=O)[C@@H](NC(=O)[C@H](CC(N)=O)NC(=O)[C@H](CC(=O)O)NC(=O)[C@H](CCCCN)NC(=O)[C@H](CC(=O)O)NC(=O)[C@H](CCCCN)NC(=O)[C@H](CC(=O)O)NC(=O)[C@@H](NC(=O)[C@H](Cc1ccccc1)NC(=O)[C@H](CCC(N)=O)NC(=O)[C@H](Cc1ccc(O)cc1)NC(=O)[C@H](CC(C)C)NC(=O)[C@H](CCC(N)=O)NC(=O)[C@H](Cc1c[nH]cn1)NC(=O)[C@H](C)NC(=O)[C@H](CC(C)C)NC(=O)[C@H](CCCNC(=N)N)NC(=O)[C@H](CCC(N)=O)NC(=O)[C@@H](NC(=O)[C@@H](NC(=O)[C@@H]1CSSC[C@H](NC(=O)CN)C(=O)N[C@@H](CCCNC(=N)N)C(=O)N[C@@H](Cc2ccccc2)C(=O)NCC(=O)N[C@@H]([C@@H](C)O)C(=O)N1)[C@@H](C)O)C(C)C)[C@@H](C)O)C(C)C)C(=O)N[C@@H](CO)C(=O)N1CCC[C@H]1C(=O)N[C@@H](CCC(N)=O)C(=O)N[C@H](C(=O)N1C[C@H](O)C[C@H]1C(N)=O)[C@@H](C)O [compound 217] (H-GCRFGTCTVQRLAHQLYQFTDKDKDNVAPRSKISPQT[Hyp]-NH2; disulfide 2-7; N-terminus assumed)	13.800%		< 5.30
CC[C@H](C)[C@H](NC(=O)[C@H](CCC(N)=O)NC(=O)[C@H](Cc1c[nH]cn1)NC(=O)[C@H](C)NC(=O)[C@H](CC(C)C)NC(=O)[C@H](CCCNC(=N)N)NC(=O)[C@H](CCC(N)=O)NC(=O)[C@@H](NC(=O)[C@@H](NC(=O)[C@@H]1CSSC[C@H](NC(=O)CN)C(=O)N[C@@H](CCCNC(=N)N)C(=O)N[C@@H]([C@@H](C)O)C(=O)NCC(=O)N[C@@H]([C@@H](C)O)C(=O)N1)[C@@H](C)O)C(C)C)C(=O)N[C@@H](Cc1ccc(O)cc1)C(=O)N[C@@H](CCC(N)=O)C(=O)N[C@@H](Cc1ccccc1)C(=O)N[C@H](C(=O)N[C@@H](CC(=O)O)C(=O)N[C@@H](CCCCN)C(=O)N[C@@H](Cc1ccccc1)C(=O)N[C@@H](CCCCN)C(=O)N[C@@H](CC(=O)O)C(=O)N[C@@H](CC(N)=O)C(=O)N[C@H](C(=O)N[C@@H](C)C(=O)N1CCC[C@H]1C(=O)N[C@@H](CCCNC(=N)N)C(=O)N[C@@H](CO)C(=O)N[C@@H](CCCCN)C(=O)N[C@H](C(=O)N[C@@H](CO)C(=O)N1CCC[C@H]1C(=O)N[C@@H](CCC(N)=O)C(=O)N[C@@H](C)C(=O)N1C[C@H](O)C[C@H]1C(N)=O)[C@@H](C)CC)C(C)C)[C@@H](C)O [compound 218] (H-GCRTGTCTVQRLAHQIYQFTDKFKDNVAPRSKISPQA[Hyp]-NH2; disulfide 2-7; N-terminus assumed)	4.500%		< 5.30
CC[C@H](C)[C@H](NC(=O)[C@H](CCC(N)=O)NC(=O)[C@H](Cc1c[nH]cn1)NC(=O)[C@H](C)NC(=O)[C@H](CC(C)C)NC(=O)[C@H](CCCNC(=N)N)NC(=O)[C@H](CCC(N)=O)NC(=O)[C@@H](NC(=O)[C@@H](NC(=O)[C@@H]1CSSC[C@H](NC(=O)CN)C(=O)N[C@@H](CCCNC(=N)N)C(=O)N[C@@H]([C@@H](C)O)C(=O)NCC(=O)N[C@@H]([C@@H](C)O)C(=O)N1)[C@@H](C)O)C(C)C)C(=O)N[C@@H](Cc1ccc(O)cc1)C(=O)N[C@@H](CCC(N)=O)C(=O)N[C@@H](Cc1ccccc1)C(=O)N[C@H](C(=O)N[C@@H](CC(N)=O)C(=O)N[C@@H](CCCCN)C(=O)N[C@@H](CC(=O)O)C(=O)N[C@@H](CCCCN)C(=O)N[C@@H](CC(=O)O)C(=O)N[C@@H](CC(N)=O)C(=O)N[C@H](C(=O)N[C@@H](C)C(=O)N1CCC[C@H]1C(=O)N[C@@H](CCCNC(=N)N)C(=O)N[C@@H](CO)C(=O)N[C@@H](CCCCN)C(=O)N[C@H](C(=O)N[C@@H](CO)C(=O)N1CCC[C@H]1C(=O)N[C@@H](CCC(N)=O)C(=O)N[C@@H](Cc1c[nH]cn1)C(=O)N1C[C@H](O)C[C@H]1C(N)=O)[C@@H](C)CC)C(C)C)[C@@H](C)O [compound 219] (H-GCRTGTCTVQRLAHQIYQFTNKDKDNVAPRSKISPQH[Hyp]-NH2; disulfide 2-7; N-terminus assumed)	0.700%		5.37
CC[C@H](C)[C@H](NC(=O)[C@H](CCC(N)=O)NC(=O)[C@H](Cc1c[nH]cn1)NC(=O)[C@H](C)NC(=O)[C@H](CC(C)C)NC(=O)[C@H](CCCNC(=N)N)NC(=O)[C@H](CCC(N)=O)NC(=O)[C@@H](NC(=O)[C@@H](NC(=O)[C@@H]1CSSC[C@H](NC(=O)CN)C(=O)N[C@@H](CCCNC(=N)N)C(=O)N[C@@H]([C@@H](C)O)C(=O)NCC(=O)N[C@@H]([C@@H](C)O)C(=O)N1)[C@@H](C)O)C(C)C)C(=O)N[C@@H](Cc1ccc(O)cc1)C(=O)N[C@@H](CCC(N)=O)C(=O)N[C@@H](Cc1ccccc1)C(=O)N[C@H](C(=O)N[C@@H](CC(N)=O)C(=O)N[C@@H](CCCCN)C(=O)N[C@@H](CC(=O)O)C(=O)N[C@@H](CCCCN)C(=O)N[C@@H](CC(=O)O)C(=O)N[C@@H](CC(N)=O)C(=O)N[C@H](C(=O)N[C@@H](C)C(=O)N1CCC[C@H]1C(=O)N[C@@H](CCCNC(=N)N)C(=O)N[C@@H](CO)C(=O)N[C@@H](CCCCN)C(=O)N[C@H](C(=O)N[C@@H](CO)C(=O)N1CCC[C@H]1C(=O)N[C@@H](CCC(N)=O)C(=O)N[C@@H](Cc1c[nH]c2ccccc12)C(=O)N1C[C@H](O)C[C@H]1C(N)=O)[C@@H](C)CC)C(C)C)[C@@H](C)O [compound 220] (H-GCRTGTCTVQRLAHQIYQFTNKDKDNVAPRSKISPQW[Hyp]-NH2; disulfide 2-7)	1.100%		< 5.30
